Measurements published in patent US20230100838A1 (Revolution Medicines, Inc., priority 2019, published 2023).

How the values were obtained:
Format in all cases: binding
[1] = target: T1, GDP-loaded K-Ras (1-169) C51S, C80L, C118S (Homo sapiens, UniProt P01116, C118S/C51S/C80L); experiment: K-Ras WT (GDP) cross-linking assay (conjugate formation, TOF mass spectrometry); settings: percent covalently modified K-Ras by MS, room temperature, typical compound conc. 2, 10, 25 μM, endpoints 1 and 24 h
T1 construct: GDP-loaded K-Ras (1-169) C51S, C80L, C118S
Procedure, shortened: (§1)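 5 μM protein (final, from 50 μM) in HEPES/NaCl/MgCl2 buffer pH 7.4 with compound typically at 2, 10 and 25 μM, room temperature, 1 and 24 h endpoints; formic acid quench. Intact-protein LC–TOF MS; percent modification is covalent adduct peak height over total K-Ras peak height.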

K-Ras G12S = K-Ras G12S (Homo sapiens, UniProt P01116, G12S); experiment: K-Ras G12S cross-linking assay (comparable procedure, conjugate formation, TOF mass spectrometry)
Procedure, shortened: as §1

[2] = target: T2, GDP-loaded K-Ras (1-169) G12D, C51S, C80L, C118S (Homo sapiens, UniProt P01116, C118S/C51S/C80L/G12D); experiment: K-Ras G12D(GDP) cross-linking assay (conjugate formation, TOF mass spectrometry); settings: percent covalently modified K-Ras by MS, room temperature, typical compound conc. 2, 10, 25 μM, endpoints 1 and 24 h
T2 construct: GDP-loaded K-Ras (1-169) G12D, C51S, C80L, C118S
Procedure, shortened: as §1

[3] = Table 4, percent covalently modified K-Ras by MS
[4] = Table 5, percent covalently modified K-Ras by MS

| SMILES | WT x-linking (%) ([1]; Table 4) | G12S x-linking (%) (K-Ras G12S; [3]) | G12D x-linking (%) ([2]; Table 4) | WT x-linking (%) ([1]; Table 5) | G12S x-linking (%) (K-Ras G12S; [4]) | G12D x-linking (%) ([2]; Table 5) |
| --- | --- | --- | --- | --- | --- | --- |
| Cc1cccc2cccc(N3CCc4c(nc(OC[C@@H]5CCCN5C)nc4N4CCC(C(O)(O)C(F)(F)F)CC4)C3)c12 [Example 51, (S)-2,2,2-trifluoro-1-(1-(7-(8-methylnaphthalen-1-yl)-2-((1-methylpyrrolidin-2-yl)methoxy)-5,6,7,8-tetrahydropyrido[3,4-d]pyrimidin-4-yl)piperidin-4-yl)ethane-1,1-diol] | + (0 < x ≤ 20) | + (0 < x ≤ 10) | + (0 < x ≤ 20) | – | – | – |
| COCCN=C=N[C@H]1C[C@H](Nc2nc(OC[C@@H]3CCCN3C)nc3c2CCN(c2cccc4cccc(C)c24)C3)C1 [Example 72, N-((1r,3S)-3-((((2-methoxyethyl)imino)methylene)amino)cyclobutyl)-7-(8-methylnaphthalen-1-yl)-2-(((S)-1-methylpyrrolidin-2-yl)methoxy)-5,6,7,8-tetrahydropyrido[3,4-d]pyrimidin-4-amine] | – | – | – | ++ (20 < x ≤ 100) | ++ (10 < x ≤ 100) | +++ (40 < x ≤ 100) |
| CN(CCN=C=Nc1ccccc1)c1ncnc2c(F)c(-c3ccccc3F)c(Cl)cc12 [Example 7, 6-chloro-8-fluoro-7-(2-fluorophenyl)-N-methyl-N-(2-(((phenylimino)methylene)amino)ethyl)quinazolin-4-amine] | + (0 < x ≤ 20) | + (0 < x ≤ 10) | + (0 < x ≤ 20) | – | – | – |
| Cc1cccc2cccc(N3CCc4c(nc(OC[C@@H]5CCCN5C)nc4N4CCC(N(C)C(=O)C5CN5)CC4)C3)c12 (stereo partly drawn) [Example 42, N-methyl-(1-(7-(8-methylnaphthalen-1-yl)-2-(((S)-1-methylpyrrolidin-2-yl)methoxy)-5,6,7,8-tetrahydropyrido[3,4-d]pyrimidin-4-yl)piperidin-4-yl)aziridine-2-carboxamide] | + (0 < x ≤ 20) | + (0 < x ≤ 10) | + (0 < x ≤ 20) | – | – | – |
| COCCCN=C=NC1CCN(c2nc(OC[C@@H]3CCCN3C)nc3c2CCN(c2cccc4cccc(C)c24)C3)CC1 [Example 25, N-(3-methoxypropyl)-N-(1-(7-(8-methylnaphthalen-1-yl)-2-(((S)-1-methylpyrrolidin-2-yl)methoxy)-5,6,7,8-tetrahydropyrido[3,4-d]pyrimidin-4-yl)piperidin-4-yl)methanediimine] | ++ (20 < x ≤ 100) | ++ (10 < x ≤ 100) | +++ (40 < x ≤ 100) | – | – | – |
| COCCN=C=NC1CCN(c2nc(OC[C@@H]3CCCN3C)nc3c2CCN(c2cccc4cccc(C)c24)C3)CC1 [Example 20, N-(2-methoxyethyl)-N-(1-(7-(8-methylnaphthalen-1-yl)-2-(((S)-1-methylpyrrolidin-2-yl)methoxy)-5,6,7,8-tetrahydropyrido[3,4-d]pyrimidin-4-yl)piperidin-4-yl)methanediimine] | ++ (20 < x ≤ 100) | ++ (10 < x ≤ 100) | +++ (40 < x ≤ 100) | – | – | – |
| Cc1cccc2cccc(N3CCc4c(nc(OC[C@@H]5CCCN5C)nc4N4CCC(N(C)C(=O)C5CN5C)CC4)C3)c12 (stereo partly drawn) [Example 45, N,1-dimethyl-N-(1-(7-(8-methylnaphthalen-1-yl)-2-(((S)-1-methylpyrrolidin-2-yl)methoxy)-5,6,7,8-tetrahydropyrido[3,4-d]pyrimidin-4-yl)piperidin-4-yl)aziridine-2-carboxamide] | + (0 < x ≤ 20) | + (0 < x ≤ 10) | + (0 < x ≤ 20) | – | – | – |
| Cc1cccc2cccc(N3CCc4c(nc(OC[C@@H]5CCCN5C)nc4N4CCN(C(=O)NCCCl)[C@@H](CC#N)C4)C3)c12 [Example 34, (S)—N-(2-chloroethyl)-2-(cyanomethyl)-4-(7-(8-methylnaphthalen-1-yl)-2-(((S)-1-methylpyrrolidin-2-yl)methoxy)-5,6,7,8-tetrahydropyrido[3,4-d]pyrimidin-4-yl)piperazine-1-carboxamide] | + (0 < x ≤ 20) | + (0 < x ≤ 10) | + (0 < x ≤ 20) | – | – | – |
| Fc1ccccc1-c1c(Cl)cc2c(N3CCC(N=C=NCc4ccccc4)CC3)ncnc2c1F [Example 1, N-benzyl-N-(1-(6-chloro-8-fluoro-7-(2-fluorophenyl)quinazolin-4-yl)piperidin-4-yl)methanediimine] | + (0 < x ≤ 20) | + (0 < x ≤ 10) | + (0 < x ≤ 20) | – | – | – |

The remaining lines, values ahead:

| WT x-linking (%) ([1]; Table 4) | G12S x-linking (%) (K-Ras G12S; [3]) | G12D x-linking (%) ([2]; Table 4) | WT x-linking (%) ([1]; Table 5) | G12S x-linking (%) (K-Ras G12S; [4]) | G12D x-linking (%) ([2]; Table 5) | SMILES |
| --- | --- | --- | --- | --- | --- | --- |
| ++ (20 < x ≤ 100) | ++ (10 < x ≤ 100) | +++ (40 < x ≤ 100) | – | – | – | Cc1cccc2cccc(N3CCc4c(nc(OC[C@@H]5CCCN5C)nc4N(C)CCCN=C=NCc4ccccc4)C3)c12 [Example 31, N-(3-(((benzylimino)methylene)amino)propyl)-N-methyl-7-(8-methylnaphthalen-1-yl)-2-(((S)-1-methylpyrrolidin-2-yl)methoxy)-5,6,7,8-tetrahydropyrido[3,4-d]pyrimidin-4-amine] |
| + (0 < x ≤ 20) | + (0 < x ≤ 10) | + (0 < x ≤ 20) | – | – | – | CC(=O)N1CC1C(=O)N1CCN(c2nc(OC[C@@H]3CCCN3C)nc3c2CCN(c2cccc4cccc(C)c24)C3)CC1 (stereo partly drawn) [Example 47, 1-(2-(4-(7-(8-methylnaphthalen-1-yl)-2-(((S)-1-methylpyrrolidin-2-yl)methoxy)-5,6,7,8-tetrahydropyrido[3,4-d]pyrimidin-4-yl)piperazine-1-carbonyl)aziridin-1-yl)ethan-1-one] |
| – | – | – | ++ (20 < x ≤ 100) | ++ (10 < x ≤ 100) | +++ (40 < x ≤ 100) | Cc1cccc2cccc(N3CCc4c(nc(OC[C@@H]5CCCN5C)nc4N4CCC(N=C=NCCN(C)c5ccncn5)CC4)C3)c12 [Example 92, N-methyl-N-(2-((((1-(7-(8-methylnaphthalen-1-yl)-2-(((S)-1-methylpyrrolidin-2-yl)methoxy)-5,6,7,8-tetrahydropyrido[3,4-d]pyrimidin-4-yl)piperidin-4-yl)imino)methylene)amino)ethyl)pyrimidin-4-amine] |
| – | – | – | + (0 < x ≤ 20) | ++ (10 < x ≤ 100) | +++ (40 < x ≤ 100) | COCCN=C=N[C@@H]1CCN(c2nc(OC[C@@H]3CCCN3C)nc3c2CCN(c2cccc4cccc(C)c24)C3)C[C@@H]1CC#N [Example 75, 2-((3S,4R)-4-((((2-methoxyethyl)imino)methylene)amino)-1-(7-(8-methylnaphthalen-1-yl)-2-(((S)-1-methylpyrrolidin-2-yl)methoxy)-5,6,7,8-tetrahydropyrido[3,4-d]pyrimidin-4-yl)piperidin-3-yl)acetonitrile] |
| + (0 < x ≤ 20) | + (0 < x ≤ 10) | + (0 < x ≤ 20) | – | – | – | Fc1ccccc1-c1c(Cl)cc2c(N3CCN(C4=NCCO4)CC3)ncnc2c1F [Example 14, 2-(4-(6-chloro-8-fluoro-7-(2-fluorophenyl)quinazolin-4-yl)piperazin-1-yl)-4,5-dihydrooxazole] |
| + (0 < x ≤ 20) | + (0 < x ≤ 10) | + (0 < x ≤ 20) | – | – | – | CN(CCN=C=NCc1ccccc1)c1ncnc2c(F)c(-c3ccccc3F)c(Cl)cc12 [Example 8, N-(2-(((benzylimino)methylene)amino)ethyl)-6-chloro-8-fluoro-7-(2-fluorophenyl)-N-methylquinazolin-4-amine] |
